{"source": "patent US12158470B2", "about": "“Methods and compositions for live cell analysis of intracellular ATP” (Sartorius BioAnalytical Instruments, Inc., priority 2018, dated 2024)", "key": {"[1]": {"system": "triple-negative breast cancer (TNBC) cell lines", "test": "Live cell ATP sensor imaging after compound treatment, TNBC cell lines", "format": "cell-based", "description": "(§1) Cancer cell lines stably expressing a genetically encoded, fluorescent ATP sensor or a control (non-ATP binding) sensor were generated. Cell lines were cultured in recommended media conditions except for studies evaluating the effects of the glutaminase-1 (GLS1) inhibitor CB-839, for which cells were adapted to RPMI supplemented with 10% FBS prior to experimentation. […] Cellular ATP levels were measured over the course of hours to days following compound treatment.\n(§2) A live cell imaging approach was then utilized to evaluate the effect of cancer therapeutics on ATP levels in tumor cell lines, focusing primarily on compounds that target metabolic vulnerabilities. […] Quantification of phase confluence confirmed that sustained decreases in ATP were associated with enhanced antiproliferative efficacy compared to conditions under which recovery of ATP levels were observed."}, "[2]": {"system": "receptor-positive breast cancer lines", "test": "Live cell ATP sensor imaging after compound treatment, receptor-positive breast cancer lines", "format": "cell-based", "description": "as §1, §2"}}, "note": "Entries after “also recorded” stand apart in the source; their conditions may differ.", "data": [{"smiles": "O=C(Cc1cccc(OC(F)(F)F)c1)Nc1ccc(CCCCc2nnc(NC(=O)Cc3ccccn3)s2)nn1", "note": "[CB-839]", "values": [{"measurement": "effect on ATP levels in co-culture", "setting": "[1]; TNBC cultured on a monolayer of CCD-1068Sk fibroblasts", "result": "diminished effects on ATP levels; also recorded: attenuated by co-culture with CCD-1068Sk fibroblasts"}, {"measurement": "effect on ATP levels", "setting": "[1]; TNBC, mono-culture, three-day time course", "result": "rapid drop in ATP; also recorded: remained below that of vehicle-treated cells for the duration of the three-day time course; also recorded: prolonged ATP depletion"}, {"measurement": "effect on ATP levels", "setting": "[2]; receptor-positive cell lines, mono-culture", "result": "no change to more modest decreases in ATP"}, {"measurement": "time to recovery of ATP levels", "setting": "[2]; receptor-positive cells", "result": "≤ 48", "unit": "h"}, {"measurement": "effect of co-culture on the ATP response", "setting": "[2]; receptor-positive lines with CCD-1068Sk fibroblasts", "result": "unaffected by the presence of CCD-1068Sk fibroblasts"}]}]}
